For assay [1], the system named is DLD-1 BRCA2(−/−) colorectal adenocarcinoma cells. As to the kind of experiment: Cell viability assay (Cell Titer-Glo), DLD-1 BRCA2(−/−). The format is cell-based. The settings on record: Homo sapiens, DLD-1, 168 h, 7 days, 200 cells/well. From the text:
(§1) In some embodiments, the biological assay measures the effects that compounds of the present disclosure may have on the viability of cells, e.g., the viability of cancer cells. In some embodiments, DLD-1 wild-type and DLD-1 BRCA2(−/−) colorectal adenocarcinoma cells, an isogenic pair of cell lines differing in the presence and absence, respectively, of both BRCA2 alleles, are used to measure the effect of the disclosed compounds on the viability of cancer cells.
(§2) In some embodiments, the cells are harvested during the logarithmic growth period, counted, and seeded at a specified count in the wells of a 96- or 384-well cell culture plate. In some embodiments, after seeding, the cells are incubated, e.g., at 37° C., 5% CO2 overnight. In some embodiments, the cells are treated with compounds, e.g., with serially diluted test compounds at 8-11 concentrations within a desired concentration range, e.g., from 1 nM-10 μM, for the generation of dose-response curves. In some embodiments, the plate is further incubated, e.g., for another 3-7 days in a humidified incubator at 37° C. and 5% CO2. In some embodiments, cell viability is assessed by luminescence measurement after addition of Cell Titer-Glo reagent (Promega, Madison, Wis.) according to the manufacturer's instructions. In some embodiments, cell viability IC50 values are calculated using XLFit, equation 201: y=A+((B−A)/(1+((x/C)^D))), where A=bottom, B=top, C=IC50, and D=slope. In some embodiments, the effects of the test compounds on the viability of other cell lines such as MDA-MB-436, MDA-MB-231, SUM149PT, HCC1395, and UWB1.289 are determined in an analogous method.
(§3) Compounds of the present disclosure were tested for their effects on the viability of cancer cells. DLD-1 wild-type and DLD-1 BRCA2(−/−) colorectal adenocarcinoma cells, an isogenic pair of cell lines differing in the presence and absence, respectively, of both BRCA2 alleles, were used. The cells were harvested during the logarithmic growth period, counted, and seeded at 50 cells/well for DLD-1 wild-type and 200 cells/well for DLD-1 BRCA2(−/−) in a 384-well cell culture plate. After seeding, cells were incubated at 37° C., 5% CO2 overnight. Cells were treated with serially diluted test compounds at 10 concentrations from 1.5 nM-30 μM) for generation of dose response curves. The plate was further incubated for another 7 days in a humidified incubator at 37° C. and 5% CO2. Cell viability was assessed by luminescence measurement after addition of Cell Titer-Glo reagent (Promega, Madison, Wis.) according to the manufacturer's instructions. Cell viability IC50 values were calculated using XLFit, equation 201: y=A+((B−A)/(1+((x/C)^D))), where A=bottom, B=top, C=IC50, and D=slope. IC50 values are shown in Table B and are presented in ranges, in which “+++”<300 nM, 300 nM≤“++”<3000 nM, and “+”≥3000 nM. Effects of the test compounds on the viability of other cell lines such as MDA-MB-436, MDA-MB-231, SUM149PT, HCC1395, and UWB1.289 are determined in an analogous method.
Background: ATP-based viability assays read luminescence as a measure of living cells.

For assay [2], the system named is DLD-1 wild-type colorectal adenocarcinoma cells. As to the kind of experiment: Cell viability assay (Cell Titer-Glo), DLD-1 wild-type. The settings on record: Homo sapiens, DLD-1, 168 h, 7 days, 50 cells/well. It counts as cell-based.
Source text: as §1, §2, §3

The target of another assay is recombinant human PARP1 (Homo sapiens, UniProt P09874). As to the kind of experiment: PARP1 fluorescence polarization binding assay. The settings on record: binding IC50, GST-tagged PARP1 20 nM, PARPi-FL probe 3 nM, 4 h at RT. The method, then: In some embodiments, the biological assay is described in the Examples herein. In some embodiments, the biological assay measures PARP-1 binding by way of fluorescence polarization measurements. In some embodiments, binding of a test compound to recombinant human PARP-1 reduces the amount of binding of a fluorescent probe, and consequently reduces the detected level of fluorescence polarization. In some test compound stock solutions are prepared in a solvent, e.g., DMSO, and are serially diluted into a range of concentrations, e.g., 15 concentrations, 14 concentrations, 13 concentrations, 12 concentrations, 11 concentrations, 10 concentrations, 9 concentrations, 8 concentrations, 7 concentrations, 6 concentrations, or 5 concentrations, by a dilution factor, e.g., a 10-fold dilution factor, a 9-fold dilution factor, an 8-fold dilution factor, a 7-fold dilution factor, a 6-fold dilution factor, a 5-fold dilution factor, a 4-fold dilution factor, a 3-fold dilution factor, or a 2-fold dilution factor. In some embodiments, the serial dilutions, e.g., 100 nL of serial dilution, 90 nL of serial dilution, 80 nL of serial dilution, 70 nL of serial dilution, 60 nL of serial dilution, 50 nL of serial dilution, 30 nL of serial dilution, 20 nL of serial dilution, or 10 nL of serial dilution, are added to a multi-welled plate, e.g., a 1536-well plate, a 384-well plate, or a 96-well plate. In some embodiments, PARP-1, e.g., GST-tagged PARP-1, is diluted in assay buffer, e.g., 50 μL of assay buffer, 40 μL of assay buffer, e.g., 30 μL of assay buffer, 20 μL of assay buffer, 10 μL of assay buffer, or 5 μL of assay buffer, and is added to the plate. In some embodiments, the plate is centrifuged, e.g., at 1000 rpm for 1 min, and incubated, e.g., incubated for 30 minutes at room temperature (RT). In some embodiments, a fluorescent probe, e.g., 10 μL of 6 nM PARPi-FL (TOCRIS, Cat #6461), is diluted in an assay buffer and is added to the plate. In some embodiments, the final concentrations of PARP-1 and fluorescent probe are 20 nM and 3 nM, respectively, in a total volume of 20 μL. In some embodiments, the plate is centrifuged, e.g., at 1000 rpm for 1 minute, and the assay plate is incubated, e.g., for 4 h at RT. In some embodiments, the samples in each well are read using a plate reader, e.g., an Envision instrument using excitation=480 nm, and emission wavelength=FITC FP-P pol 535 nm & FITC FP-S pol 535 nm). In some embodiments, percent inhibition is calculated from mP values using Inhibition (%)=[1−(mPc−mPL)/(mPH−mPL)]×100%, where mPc, mPL, and mPH are the mP values of test compound, Low controls, and High controls, respectively. In some embodiments, binding IC50 values are calculated using XLFit (equation 201: y=A+((B−A)/(1+((x/C)^D))), where A=bottom, B=top, C=IC50, and D=slope) with a floating top and bottom for curves.
Chain of recombinant human PARP1 (P09874 whole entry): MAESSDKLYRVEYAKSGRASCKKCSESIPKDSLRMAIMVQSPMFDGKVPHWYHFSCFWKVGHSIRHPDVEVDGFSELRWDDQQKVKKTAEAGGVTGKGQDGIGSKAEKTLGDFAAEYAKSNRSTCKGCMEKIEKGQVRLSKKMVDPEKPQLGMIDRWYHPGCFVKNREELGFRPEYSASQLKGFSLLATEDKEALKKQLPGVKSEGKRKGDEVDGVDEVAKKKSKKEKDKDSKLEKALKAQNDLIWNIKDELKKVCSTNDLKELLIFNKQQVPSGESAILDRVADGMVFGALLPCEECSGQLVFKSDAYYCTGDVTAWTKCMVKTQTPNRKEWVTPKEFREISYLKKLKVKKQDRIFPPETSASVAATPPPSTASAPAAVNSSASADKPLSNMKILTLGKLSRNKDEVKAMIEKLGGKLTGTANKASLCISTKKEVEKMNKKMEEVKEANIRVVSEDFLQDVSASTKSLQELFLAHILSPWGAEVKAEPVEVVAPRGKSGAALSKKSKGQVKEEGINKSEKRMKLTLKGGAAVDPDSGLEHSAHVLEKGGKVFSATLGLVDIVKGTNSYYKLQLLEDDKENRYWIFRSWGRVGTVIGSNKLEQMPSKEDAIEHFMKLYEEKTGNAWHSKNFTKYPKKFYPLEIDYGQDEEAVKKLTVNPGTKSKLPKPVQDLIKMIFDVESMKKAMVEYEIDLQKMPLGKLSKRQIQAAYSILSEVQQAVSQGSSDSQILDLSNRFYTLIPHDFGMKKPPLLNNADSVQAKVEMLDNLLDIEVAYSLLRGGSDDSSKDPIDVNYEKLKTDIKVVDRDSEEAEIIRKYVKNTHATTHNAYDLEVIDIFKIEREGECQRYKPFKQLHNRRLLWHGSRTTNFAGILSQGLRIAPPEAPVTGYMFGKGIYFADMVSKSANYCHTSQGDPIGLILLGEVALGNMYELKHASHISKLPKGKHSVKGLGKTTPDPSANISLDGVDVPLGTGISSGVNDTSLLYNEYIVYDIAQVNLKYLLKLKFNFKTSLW
Compounds of the present disclosure were tested in a PARP1 fluorescence polarization binding assay at Pharmaron (Beijing, P.R. China). In this biochemical assay, binding of test compound to recombinant human PARP1 reduces the amount of binding of a fluorescent probe, and consequently reduces the detected level of fluorescence polarization. Test compound stock solutions were prepared in DMSO and then serially diluted into 10 concentrations by 3-fold dilution in a 384-well plate using a TECAN EVO200. 60 nL of each dilution was transferred to the plate using an Echo550 (Labcyte), and then 10 μL 40 nM GST-tagged PARP1 (BPS Bioscience, Cat #80501), diluted in assay buffer (50 mM Tris pH 8.0, 0.001% Triton X-100, 10 mM MgCl2, 150 mM NaCl), was added to the plate. After a centrifugation at 1000 rpm for 1 min, the assay plate was incubated for 30 min at RT. 10 μL 6 nM PARPi-FL (TOCRIS, Cat #6461), diluted using assay buffer, was then added to the plate. The final concentrations of PARP1 and PARPi-FL were 20 nM and 3 nM, respectively, in a total volume of 20 μL. […]
Background: In fluorescence polarisation assays a small probe gives low polarisation when free and higher when bound to something large.

Where a name gives a salt, the structure may show the parent alone. Bounds are passed on as bounds.

A word on the IC50: it is the concentration needed to halve the response being measured. In the case of `CCc1cc2ncc(CN3CC4CCC(C3)N4c3ccc(C(=O)NC)nc3)cc2[nH]c1=O` [Compound No. 8, 5-(3-((7-ethyl-6-oxo-5,6-dihydro-1,5-naphthyridin-3-yl)methyl)-3,8-diazabicyclo[3.2.1]octan-8-yl)-N-methylpicolinamide], the half-maximal inhibitory concentration (IC50) is at least 3000 nM in assay [1], at least 3000 nM in assay [2] and 100 to 3000 nM at recombinant human PARP1.
With `CCc1cc2ncc(CN3CC4(C3)CN(c3ccc(C(=O)NC)nc3C)C4)cc2[nH]c1=O` [Compound No. 139, 5-(6-((7-ethyl-6-oxo-5,6-dihydro-1,5-naphthyridin-3-yl)methyl)-2,6-diazaspiro[3.3]heptan-2-yl)-N,6-dimethylpicolinamide formate], the IC50 in assay [1] is at least 3000 nM; in assay [2] it was at least 3000 nM; at recombinant human PARP1, 100 to 3000 nM.
Regarding `CCc1cc2ncc(CN3CC4(C3)CN(C(=O)c3ccc(F)cc3F)C4)cc2[nH]c1=O` [Compound No. 181, 7-({6-[(2,4-difluorophenyl)carbonyl]-2,6-diazaspiro[3.3]heptan-2-yl}methyl)-3-ethyl-1H-1,5-naphthyridin-2-one formate], the IC50 (in assay [1]; in assay [2]; at recombinant human PARP1) was at least 3000 nM in each case.
Consider `CCc1cc2ncc(CN3C4CCC3CN(c3ccc(C(=O)NC)nc3)C4)cc2[nH]c1=O` [Compound No. 3, 5-(8-((7-ethyl-6-oxo-5,6-dihydro-1,5-naphthyridin-3-yl)methyl)-3,8-diazabicyclo[3.2.1]octan-3-yl)-N-methylpicolinamide], for which the IC50 in assay [1] was 300 to 3000 nM; in assay [2] it was at least 3000 nM; at recombinant human PARP1, below 100 nM.

Values taken from patent US20240132522A1, “HETEROCYCLIC COMPOUNDS AND METHODS OF USE THEREOF” (1cBio, Inc., priority 2022, published 2024).
